The subject of data set [1] is mHTT protein in GM04724 (CAG 70/20) Huntington's disease patient lymphoblast cells. Put plainly: mHTT protein assay, 2B7-MW1 assay via Mesoscale Discovery (MSD). The format is cell-based, human. As to the method: Example A10: mHTT Protein Assay
Compounds are tested on GM04724 (CAG 70/20) Huntington's disease patient lymphoblast cells at doses ranging from 10 μM to 0.6 nM. 4,500 cells/well are seeded in 384 well plates. One plate replica is carried out for parallel viability testing by CellTiter Glo (CTG). Compounds are incubated for 48 hours. mHTT protein levels are assessed by the 2B7-MW1 assay via Mesoscale Discovery (MSD) as previously reported (Macdonald et al., 2014). The antibody pair is comprised of previously characterized monoclonals (2B7 and MW1) interrogating two regions for HTT conformation and biological properties: the N, 17 domain and the polyQ domain (Baldo et al., 2012; Ko et., 2001). 2B7-MW1 is […] specific levels of HTT at the time of treatment. 2B7-MW1 is dependent on polyQ expansion (e.g., the higher the expansion the higher the signal) and on mHTT size (e.g., a similar polyQ will give higher signal with smaller HTT size). The viability readout is carried out by CTG according to the manufacturer's instructions.

The subject of data set [2] is SMN protein in spinal muscular atrophy (SMA) patient fibroblasts (GM03813, Coriell). Put plainly: SMN protein assay, Mesoscale Discovery (MSD). Type of data set: cell-based, human. As to conditions: read-out: SMN2 protein EC50. As to the method:
Example A12: SMN Protein Assay
Compounds are tested on spinal muscular atrophy (SMA) patient fibroblasts (GM03813, Coriell) at doses ranging from 2.5 μM to 0.6 nM. 7000 cells/well are seeded in 96-well plates. Compounds are incubated for 48 hours and the cells were lysed with 100 μL of lysis buffer. 20 μL of lysate is used for SMN protein measurement by Mesoscale Discovery (MSD) assay developed by PharmOptima (Michigan). A standard curve prepared with SMN protein ranging from 1 μg/ml to 19.5 pg/ml is used in each MSD plate to calculate the absolute SMN protein amount in each sample.

The test system of a further data set is MDR1 (P-gp). Put plainly: Blood-brain-barrier (BBB) penetration potential via MDCK-MDR1 permeability assay. As to conditions: dog; for efflux ratio at 120 min, 5 μM: MDCK-MDR1, pH 7.4, MDCK-MDR1: Efflux; for Papp A→B at 120 min, 5 μM: MDCK-MDR1, pH 7.4, MDCK-MDR1: Papp A-B; for Papp B→A at 120 min, 5 μM: MDCK-MDR1, pH 7.4, MDCK-MDR1: Papp B-A.
In data set [3] the test system is MDR1-MDCK cell monolayers. The description is as above.
For another data set, the system named is MDR1. Described as above. Particulars: dog, MDCK-MDR1, pH 7.4, MDCK-MDR1: Efflux, efflux ratio.
Where [4] appears, read: GM04724 Huntington's disease patient lymphoblasts.
Setting [5] is: SMA patient fibroblasts GM03813, 48 hours, MSD.
Where [6] appears, read: GM04724 (CAG 70/20) Huntington's disease patient lymphoblasts.

Where two headings read alike, the source gives them in different places.

Experimental findings from patent US12509460B2 (Skyhawk Therapeutics, Inc., priority 2019, dated 2025) are described below.

For orientation: EC50 means the concentration that produces a half-maximal response. As a reminder, the efflux ratio is the permeability from basolateral to apical divided by that in the opposite direction, in the common usage. What is called Papp A→B is the apparent permeability from the apical to the basolateral side of a cell layer. Lower therefore signals slow passage. Broadly, the Papp B→A is the apparent permeability from the basolateral to the apical side of a cell layer.

On to `CN(c1ccc(-c2ccc(-c3cnn(C)c3)cc2O)nn1)[C@H]1C[C@H]2CC(F)(F)[C@H](C1)N2` (single isomer, unassigned) [Compound 3B], for which the results for the EC50 in data set [1] (setting [4]) and in data set [2] (setting [5]) were 51 to 100 nM and 101 to 500 nM, respectively. For the same compound, the efflux ratio at 120 min, 5 μM with MDR1 (P-gp) (efflux ratio) was found to be 1. In addition, the Papp A→B at 120 min, 5 μM with MDR1 (P-gp) (A-B direction) stood at 16.3 ×10⁻⁶ cm/s. The same compound came in with a Papp B→A at 120 min, 5 μM with MDR1 (P-gp) (B-A direction) of 22.7 ×10⁻⁶ cm/s. Also, the “MDCK-MDR1: % Recov A-B” value in data set [3] (A-B direction) is listed as 80%. In addition, the “MDCK-MDR1: % Recov B-A” value in data set [3] (B-A direction) worked out at 71%.
With `CC#Cc1ccc(-c2ccc(N(C)C3CC4CCC(N4)C3F)nn2)c(O)c1` (single isomer, unassigned) [Compound 30B], the EC50 in data set [1] (setting [4]) fell in the range of 51 to 100 nM; in data set [2] (setting [5]) it was 101 to 500 nM. For the same compound, the efflux ratio at 120 min, 5 μM in the data set on MDR1 (P-gp) (efflux ratio) came out at 1. In the data set on MDR1 (P-gp) (A-B direction), this compound returned a Papp A→B at 120 min, 5 μM of 10.6 ×10⁻⁶ cm/s. The same compound gave a Papp B→A at 120 min, 5 μM in the data set with MDR1 (P-gp) (B-A direction) of 11 ×10⁻⁶ cm/s. Also, the “MDCK-MDR1: % Recov A-B” value in data set [3] (A-B direction) is recorded as 38%. The “MDCK-MDR1: % Recov B-A” value in data set [3] (B-A direction) is listed as 69%.
As to `CN(c1ccc(-c2cc3c(=O)n(C)ccc3s2)nn1)[C@@H]1C[C@H]2CC[C@H](N2)[C@@H]1F` (single isomer, unassigned) [Compound 68A], the EC50 in data set [1] (setting [4]) was 101 to 500 nM; in data set [2] (setting [5]), 51 to 100 nM. Also, in the data set with MDR1, the efflux ratio at 120 min, 5 μM stood at 111. Further, the Papp A→B at 120 min, 5 μM in the data set on MDR1 (P-gp) (A-B direction) came out at 0.41 ×10⁻⁶ cm/s. Further, in the data set on MDR1 (P-gp) (B-A direction), the Papp B→A at 120 min, 5 μM was found to be 45.6 ×10⁻⁶ cm/s. Also, the “MDCK-MDR1: % Recov A-B” value in data set [3] (A-B direction) worked out at 92%. Also, the “MDCK-MDR1: % Recov B-A” value in data set [3] (B-A direction) is listed as 78%.
For `CN(c1ccc(-c2ccc(-c3cnn(C)c3)cc2O)nn1)[C@@H]1C[C@H]2CCC[C@H](N2)[C@@H]1F` [Compound 15A, 2-(6-(((1S,2S,3R,5R)-2-fluoro-9-azabicyclo[3.3.1]nonan-3-yl)(methyl)amino)pyridazin-3-yl)-5-(1-methyl-1H-pyrazol-4-yl)phenol], the EC50 in data set [1] (setting [4]) and in data set [2] (setting [5]) was 0.01 to 15 nM each time. For the same compound, the efflux ratio at 120 min, 5 μM with MDR1 was found to be 12. This compound returned a Papp A→B at 120 min, 5 μM in the data set on MDR1 (P-gp) (A-B direction) of 2.76 ×10⁻⁶ cm/s. This compound yielded a Papp B→A at 120 min, 5 μM in the data set on MDR1 (P-gp) (B-A direction) of 34.4 ×10⁻⁶ cm/s. Also, the “MDCK-MDR1: % Recov A-B” value in data set [3] (A-B direction) is given as 61%. Moreover, the “MDCK-MDR1: % Recov B-A” value in data set [3] (B-A direction) was 70%.
As for `CN(c1ccc(-c2cc(F)c(-c3ccn(C)c(=O)c3)cc2O)nn1)[C@H]1C[C@@H]2CC(F)(F)[C@H](C1)N2` [Compound 22B, 4-(4-(6-(((1R,3S,5S)-6,6-difluoro-8-azabicyclo[3.2.1]octan-3-yl)(methyl)amino)pyridazin-3-yl)-2-fluoro-5-hydroxyphenyl)-1-methylpyridin-2(1H)-one], the EC50 in data set [2] (setting [5]) lay in the range of 51 to 100 nM. Besides, the efflux ratio at 120 min, 5 μM in the data set with MDR1 stood at 31. Also, the Papp A→B at 120 min, 5 μM in the data set on MDR1 (P-gp) (A-B direction) turned out to be 2.83 ×10⁻⁶ cm/s. Also, in the data set with MDR1 (P-gp) (B-A direction), the apparent permeability from basolateral to apical (Papp B→A) at 120 min, 5 μM amounted to 87.7 ×10⁻⁶ cm/s. Moreover, the “MDCK-MDR1: % Recov A-B” value in data set [3] (A-B direction) was found to be 88%. For the same compound, the “MDCK-MDR1: % Recov B-A” value in data set [3] (B-A direction) stood at 95%.
For `Cc1nc2cc(-c3ccc(N(C)[C@@H]4C[C@H]5CC[C@H](N5)[C@@H]4F)nn3)c(O)cc2o1` [Compound 118A, 5-(6-(((1S,2S,3R,5R)-2-fluoro-8-azabicyclo[3.2.1]octan-3-yl)(methyl)amino)pyridazin-3-yl)-2-methylbenzo[d]oxazol-6-ol], in data set [1] (setting [6]), the EC50 fell in the range of 16 to 50 nM.
In data set [1] (setting [6]), `Cc1nc2cc(-c3ccc(N(C)[C@H]4C[C@@H]5CC[C@@H](N5)[C@H]4F)nn3)c(O)cc2o1` [Compound 118B, 5-(6-(((1R,2R,3S,5S)-2-fluoro-8-azabicyclo[3.2.1]octan-3-yl)(methyl)amino)pyridazin-3-yl)-2-methylbenzo[d]oxazol-6-ol] came in with a half-maximal effective concentration (EC50) of 0.01 to 15 nM.
For the compound `CN(c1ccc(-c2cc3ccncc3cc2O)nn1)[C@@H]1C[C@H]2CC(F)(F)[C@@H](C1)N2` [Compound 125A, 6-(6-(((1S,3R,5R)-6,6-difluoro-8-azabicyclo[3.2.1]octan-3-yl)(methyl)amino)pyridazin-3-yl)isoquinolin-7-ol], the concentration for a half-maximal effect (EC50) fell in the range of 101 to 500 nM in data set [1] (setting [6]) and 51 to 100 nM in data set [2] (SMA patient fibroblasts (GM03813), 48 hours). Moreover, the efflux ratio at 120 min, 5 μM in the data set on MDR1 (P-gp) stood at 3. In the data set with MDR1 (P-gp) (A-B), this compound registered an apical-to-basolateral permeability (Papp A→B) at 120 min, 5 μM of 14.1 ×10⁻⁶ cm/s. Further, the Papp B→A at 120 min, 5 μM in the data set on MDR1 (P-gp) (B-A) came to 43.3 ×10⁻⁶ cm/s. Further, in data set [3] (A-B), the “MDCK-MDR1: % Recov A-B” value is 63%. For the same compound, in data set [3] (B-A), the “MDCK-MDR1: % Recov B-A” value is 87%.
